Patent US8598154B2 (Corcept Therapeutics, Inc., priority 2010, dated 2013)

Columns and labels:
[1] = molecular target: T1, glucocorticoid receptors (GR) in SW1353/MMTV-5 cells (Homo sapiens, UniProt P04150); assay: GR functional assay using SW1353/MMTV-5 cells (MMTV-luciferase reporter); type: cell-based
T1 construct: contains endogenous glucocorticoid receptors; endogenous in cells; host or cells: SW1353/MMTV-5 (human chondrosarcoma, stably transfected with the pMAMneo-Luc reporter only)
T1 sequence (P04150 1-777): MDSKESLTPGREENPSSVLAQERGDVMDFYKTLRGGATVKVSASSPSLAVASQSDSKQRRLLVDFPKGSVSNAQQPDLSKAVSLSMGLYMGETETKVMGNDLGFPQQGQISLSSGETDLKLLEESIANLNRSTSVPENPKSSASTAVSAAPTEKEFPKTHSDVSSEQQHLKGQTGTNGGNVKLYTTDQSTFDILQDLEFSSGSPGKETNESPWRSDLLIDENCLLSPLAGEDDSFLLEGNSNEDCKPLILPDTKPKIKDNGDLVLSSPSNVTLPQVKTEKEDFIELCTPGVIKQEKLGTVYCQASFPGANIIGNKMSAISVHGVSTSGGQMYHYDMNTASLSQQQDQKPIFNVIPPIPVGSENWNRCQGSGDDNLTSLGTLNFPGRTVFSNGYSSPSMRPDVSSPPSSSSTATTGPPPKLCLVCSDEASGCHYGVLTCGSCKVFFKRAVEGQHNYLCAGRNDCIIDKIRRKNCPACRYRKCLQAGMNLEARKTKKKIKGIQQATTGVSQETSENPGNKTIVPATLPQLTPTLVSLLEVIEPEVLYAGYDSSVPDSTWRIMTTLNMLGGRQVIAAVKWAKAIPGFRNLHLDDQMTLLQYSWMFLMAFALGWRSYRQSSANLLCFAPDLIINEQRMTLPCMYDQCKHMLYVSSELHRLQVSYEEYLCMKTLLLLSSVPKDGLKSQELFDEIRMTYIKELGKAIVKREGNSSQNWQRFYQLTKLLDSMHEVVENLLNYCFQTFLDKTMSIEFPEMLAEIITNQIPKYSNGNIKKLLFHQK
Method: SW1353/MMTV-5 is an adherent human chondrosarcoma cell line that contains endogenous glucocorticoid receptors. It was transfected with a plasmid (pMAMneo-Luc) encoding firefly luciferase located behind a glucocorticoid-responsive element (GRE) derived from a viral promoter (long terminal repeat of mouse mammary tumor virus). A stable cell line SW1353/MMTV-5 was selected with geneticin, which was required to maintain this plasmid.
SW1353/MMTV-5 cells were distributed in 96-well plates and incubated in medium (without geneticin) for 24 hrs (in the absence of CO2).

[2] = molecular target: T2, Human Recombinant Glucocorticoid Receptor (Homo sapiens, UniProt P04150); assay: Glucocorticoid receptor binding displacement assay with 3H-dexamethasone; conditions: displacement of 2.5 nM 3H-dexamethasone; Ki from IC50 by Cheng-Prusoff; read-out: GR Binding Ki
T2 construct: This GR was a full-length steroid hormone receptor likely to be associated with heat-shock and other endogenous proteins; host or cells: baculovirus-infected insect cells
T2 sequence (P04150 1-777): T1 sequence (P04150 1-777)
Method: The source of the receptor was recombinant baculovirus-infected insect cells. This GR was a full-length steroid hormone receptor likely to be associated with heat-shock and other endogenous proteins.
For the Primary Screen, test compounds were tested at 1 μM in duplicate. These compounds were diluted from 10 mM stock in 100% DMSO. After dilution to 100 μM, 5 μl were added to 245 μl assay buffer to obtained 2 μM compound and 2% DMSO.
For the IC50 determinations, test compounds were tested at 6 concentrations in duplicate (concentration range depends on % inhibition binding that was obtained in the Primary Screen). Test compounds were diluted from 10 mM stock in 100% DMSO. The tested solutions were prepared at 2× final assay concentration in 2% DMSO/assay buffer.
All reagents and the assay plate were kept on ice during the addition of reagents. […] After the additions, the incubation mixture was mixed and incubated for 2.5 hrs at 4° C.
After 2.5 hrs incubation, unbound counts were removed with dextran coated charcoal (DCC) as follows: 25 μl of DCC solution (10% DCC in assay buffer) was added to all wells and mixed (total volume 225 μl). The plate was centrifuged at 4000 rpm for 10 minutes at 4° C. 75 μl of the supernatants (i.e.⅓ of total volume) was carefully pipetted into an optiplate. 200 μl of scintillation cocktail were added (Microscint-40, Packard Bioscience. B.V.). The plate was vigorously shaken for approx. 10 minutes and counted on Topcount.
The IC50 values were converted to Ki (the inhibition constant) using the Cheng-Prusoff equation. Test results are presented in Tablel.
Reagents: Assay buffer: 10 mM potassium phosphate buffer pH 7.6 containing 5 mM DTT, 10 mM sodium molybdate, 100 μM EDTA and 0.1% BSA.

SMILES | Ki [1] [nM] | Ki [2] [nM]
O=S(=O)(c1ccc(N2CCCC2)nc1)N1CCC2=Cc3c(cnn3-c3ccc(F)cc3)C[C@]2(COCC2CC2)C1 [Example 25, (R)-4a-Cyclopropylmethoxymethyl-1-(4-fluorophenyl)-6-(6-pyrrolidin-1-yl-pyridine-3-sulfonyl)-4,4a,5,6,7,8-hexahydro-1H-1,2,6-triaza-cyclopenta[b]naphthalene] | < 10 | 0.5 to 1
O=C(OCC1CC1)[C@]12Cc3cnn(-c4ccc(F)cc4)c3C=C1CCN(S(=O)(=O)c1ccc(N3CCOCC3)nc1)C2 [Example 51, (R)-1-(4-Fluorophenyl)-6-(6-morpholin-4-yl-pyridine-3-sulfonyl]-1,4,5,6,7,8-hexahydro-1,2,6-triaza-cyclopenta[b]naphthalene-4a-carboxylic acid cyclopropylmethyl ester] | < 10 | 0.5 to 1
CCOC[C@]12Cc3cnn(-c4ccc(F)cc4)c3C=C1CCN(S(=O)(=O)c1ccc(N3CCCC3)nc1)C2 [Example 4, (R)-4a-Ethoxymethyl-1-(4-fluorophenyl)-6-[[6-(1-pyrrolidinyl)-3-pyridinyl]sulfonyl]-1,4,7,8-tetrahydro-1,2,6-triazacyclopenta[b]naphthalene] | 10 to 50 | > 1
O=C(OCC1CCC1)[C@]12Cc3cnn(-c4ccc(F)cc4)c3C=C1CCN(S(=O)(=O)c1ccc(N3CCOCC3)nc1)C2 [Example 52, (R)-1-(4-Fluorophenyl)-6-(6-morpholin-4-yl-pyridine-3-sulfonyl]-1,4,5,6,7,8-hexahydro-1,2,6-triaza-cyclopenta[b]naphthalene-4a-carboxylic acid cyclobutylmethyl ester] | < 10 | 0.5 to 1
COC[C@]12Cc3cnn(-c4ccc(F)cc4)c3C=C1CCN(S(=O)(=O)c1ccnc(N3CCCC3)c1)C2 [Example 42, (R)-1-(4-Fluorophenyl)-4a-methoxymethyl-6-(2-pyrrolidin-1-yl-pyridine-4-sulfonyl)-4,4a,5,6,7,8-hexahydro-1H-1,2,6-triaza-cyclopenta[b]naphthalene] | < 10 | > 1
COC[C@]12Cc3cnn(-c4ccc(F)cc4)c3C=C1CCN(S(=O)(=O)c1cncc(N3CC[C@@H](O)C3)c1)C2 [Example 38, (R)-1-{5-[(R)-1-(4-Fluorophenyl)-4a-methoxymethyl-1,4,4a,5,6,7,8-hexahydro-1,2,6-triaza-cyclopenta[b]naphthalene-6-sulfonyl]pyridine-3-yl}-pyrrolidine-3-ol] | 10 to 50 | 0.5 to 1
O=S(=O)(c1ccc(N2CCOCC2)nc1)N1CCC2=Cc3c(cnn3-c3ccc(F)cc3)C[C@]2(CN2CC[C@@H](O)C2)C1 [Example 63, (R)-1-[(S)-1-(4-Fluorophenyl)-6-[6-morpholin-4-yl-pyridine-3-sulfonyl)-1,4,5,6,7,8-hexahydro-1,2,6-triaza-cyclopenta[b]naphthalene-4a-ylmethyl]-pyrrolidin-3-ol] | 10 to 50 | > 1
O=S(=O)(c1ccc(N2CC[C@@H](F)C2)nc1)N1CCC2=Cc3c(cnn3-c3ccc(F)cc3)C[C@]2(CN2CC[C@H](O)C2)C1 [Example 47, (S)-1-{(S)-1-(4-Fluorophenyl)-6-[6-((R)-3-fluoro-pyrrolidin-1-yl)-pyridine-3-sulfonyl]-1,4,5,6,7,8-hexahydro-1,2,6-triaza-cyclopenta[b]naphthalene-4a-ylmethyl}-pyrrolidin-3-ol] | > 50 | > 1
COC[C@]12Cc3cnn(-c4ccc(F)cc4)c3C=C1CCN(S(=O)(=O)c1ccc(N3CCOCC3)nc1)C2 [Example 14, (R)-1-(4-Fluorophenyl)-4a-methoxymethyl-6-(6-morpholin-4-yl-pyridine-3-sulfonyl)-4,4a,5,6,7,8-hexahydro-1H-1,2,6-triazacyclopenta[b]naphthalene] | 10 to 50 | 0.5 to 1
COC[C@]12Cc3cnn(-c4ccc(F)cc4)c3C=C1CCN(S(=O)(=O)c1ccc(N3CCN(C)CC3)nc1)C2 [Example 19, (R)-1-(4-Fluorophenyl)-4a-methoxymethyl-6-[[6-(1-(4-methylpiperazinyl))-3-pyridinyl]sulfonyl]-1,4,7,8-tetrahydro-1,2,6-triazacyclopenta[b]naphthalene] | > 50 | > 1
CCOC[C@]12Cc3cnn(-c4ccc(F)cc4)c3C=C1CCN(S(=O)(=O)c1cccnc1)C2 [Example 2, (R)-4a-Ethoxymethyl-1-(4-fluorophenyl)-6-[[3-pyridinyl]sulfonyl]-1,4,7,8-tetrahydro-1,2,6-triazacyclopenta[b]naphthalene] | 10 to 50 | 0.5 to 1
COCCOC[C@]12Cc3cnn(-c4ccc(F)cc4)c3C=C1CCN(S(=O)(=O)c1ccc(N3CCOCC3)nc1)C2 [Example 64, (R)-1-(4-Fluoro-phenyl)-4a-(2-methoxy-ethoxymethyl)-6-(6-morpholin-4-yl-pyridine-3-sulfonyl)-4,4a,5,6,7,8-hexahydro-1H-1,2,6-traza-cyclopenta[b]naphthalene] | < 10 | 0.5 to 1
Cc1cc(COC[C@]23Cc4cnn(-c5ccc(F)cc5)c4C=C2CCN(S(=O)(=O)c2ccc(N4CC[C@@H](F)C4)nc2)C3)no1 [Example 35, (R)-1-(4-Fluorophenyl)-6-[6-((R)-3-fluoropyrrolidin-1-yl)-pyridine-3-sulfonyl]-4a-(5-methyl-isoxazol-3-ylmethoxymethyl)-4,4a,5,6,7,8-hexahydro-1H-1,2,6-triaza-cyclopenta[b]naphthalene] | 10 to 50 | > 1
COC[C@]12Cc3cnn(-c4ccc(F)cc4)c3C=C1CCN(S(=O)(=O)c1cncc(N3CC[C@H](F)C3)c1)C2 [Example 41, (R)-1-(4-Fluorophenyl)-6-[5-((S)-3-fluoropyrrolidin-1-yl)-pyridine-3-sulfonyl]-4a-methoxymethyl-4,4a,5,6,7,8-hexahydro-1H-1,2,6-triaza-cyclopenta[b]naphthalene] | < 10 | 0.5 to 1
CN(CCO)C[C@]12Cc3cnn(-c4ccc(F)cc4)c3C=C1CCN(S(=O)(=O)c1ccc(N3CCOCC3)nc1)C2 [Example 45, 2-{[(S)-1-(4-Fluorophenyl)-6-[6-morpholin-4-yl-pyridine-3-sulfonyl)-1,4,5,6,7,8-hexahydro-1,2,6-triaza-cyclopenta[b]naphthalene-4a-ylmethyl]-methyl-amino}-ethanol] | 10 to 50 | > 1
O=S(=O)(c1ccc(N2CCOCC2)nc1)N1CCC2=Cc3c(cnn3-c3ccc(F)cc3)C[C@]2(CN2CC[C@H](O)C2)C1 [Example 62, (S)-1-[(S)-1-(4-Fluorophenyl)-6-[6-morpholin-4-yl-pyridine-3-sulfonyl)-1,4,5,6,7,8-hexahydro-1,2,6-triaza-cyclopenta[b]naphthalene-4a-ylmethyl]-pyrrolidin-3-ol] | > 50 | > 1
O=S(=O)(c1ccc(N2CC(O)C2)nc1)N1CCC2=Cc3c(cnn3-c3ccc(F)cc3)C[C@]2(COCC2CC2)C1 [Example 31, 1-{5-[(R)-4a-Cyclopropylmethoxymethyl-1-(4-fluorophenyl)-1,4,4a,5,6,7,8-hexahydro-1,2,6-triaza-cyclopenta[b]naphthalene-6-sulfonyl]-pyridin-2-yl}-azetidin-3-ol] | 10 to 50 | 0.5 to 1
